The record followed here is article PMC9059126, “Structure-Based Design of a Novel Class of Autotaxin Inhibitors Based on Endogenous Allosteric Modulators” (Journal of Medicinal Chemistry, 2022).

Structures are written as SMILES. Where only a bound is given, the exact number is not on record here.

Experiment [1] deals with T1, ATX (Rattus norvegicus, UniProt Q64610). Description: Choline oxidase-coupled choline-release assay of LPC hydrolysis by ATX. To be noted: for IC50 / Residual Activity (%): 20 nM ATX; for inhibition at 100 µM: read-out: %Inhibition at 100 μM.
The target of experiment [2] is T1, ATX. The experiment can be described thus: Competition with LPA allostery (LPA-mediated activation of ATX). The experiment is classed as biochemical. Details: made in house. The note with it: inhibitor at concentrations close to or lower than IC50; 150 μM 18:1 LPC, 18:1 LPA, 20 nM ATX. Here is the method: The activation assays using LPA were performed in a similar way to those done for the inhibitors. In this case, LPA was dissolved in ethanol/H20 (1:1) and 0.01% TX-100 and was added to the reaction buffer. The presence of ethanol was taken into account, and controls in the absence of ATX and/or LPC were employed to correct the kinetic data. ATX was incubated for 30 min with different concentrations of inhibitors and subsequently added to the reaction buffer containing 150 μM 18:1 LPC and different starting concentrations of 18:1 LPA. The slopes were calculated from at least 60 min after the addition of ATX. The percentage of LPA-driven activation was normalized to ATX in the absence of LPA and inhibitors, which represented 100% activity. Last, the activation constant or AC50 was obtained from the following equation [drawing 2] 2

The test system of experiment [3] is LPA1-HA-expressing HeLa-Flp-In cells. Description: Confocal microscopy for LPA1 internalization. The experiment is classed as cell-based, Human. The note with it: 1 μM 18:1 LPC, 20 nM ATX, 15 min. The procedure: Human LPA1 cDNA was amplified by PCR to remove its stop codon and add the restriction sites for BamHI and XhoI, after which it was subcloned in an in-house produced pDNA5.1-HA vector. 0.2 μg of the resulting vector and 1.8 μg of pOG44 Flp-Recombinase Expression Vector (Invitrogen) were incubated with 6 μL of Fugene6 (Invitrogen) in 200 μL of OptiMEM (Gibco) for 30 min, after which the mix was added to previously produced HeLa-Flp-In cells.[43] Their medium was refreshed 24 h later, and selection with 1 μg/mL puromycin was started and maintained with resistant cells.
Serum-starved LPA1-HA-expressing HeLa-Flp-In cells cultured on 24 mm (#1,5) were treated with 1 μM LPC and 20 nM ATX in the presence or absence of 22 or 23 for 15 min in DMEM containing 0.05% fatty acid-free BSA. Subsequently, coverslips were washed and fixed with 4% PFA, permeabilized with 0.1% Triton X-100, and blocked with 2% BSA for 1 h. Incubation with anti-HA antibody (3F10 from Roche Diagnostics; 1:200) was done for 1 h, followed by incubation with donkey anti-rat Alexa Fluor 488-conjugated antibody (A-21208 from Invitrogen; 1:200) for 1 h at room temperature. For confocal microscopy, cells were washed with PBS, mounted with Immnuno-MountTM (Thermo Scientific), visualized on a LEICA TCS-SP5 confocal microscope (63× objective), and analyzed using ImageJ software.

In experiment [4] the target is T1, ATX. Description: Mechanistic studies: mode of inhibition and Ki from LPC titration. The experiment is classed as biochemical. Details: made in house. Here is the method:
The biochemical studies of ATX lysoPLD activity were performed with ATX. Activity was measured by a coupled reaction with 1 U mL^–1 choline oxidase and 2 U mL^–1 horseradish peroxidase (HRP) and 2 mM homovanillic acid (HVA) (all from Sigma-Aldrich). For the assays, 14:0, 16:0, 18:1, and 20:0 LPC (Avanti Polar Lipids Inc.) were incubated with 20 nM ATX, reaching a final volume of 100 μL of the buffer, which contained 50 mM Tris, 0.01%, 50 mM CaCl2, Triton X-100, pH 7.4. Steady-state choline release was measured at 37 °C by HVA fluorescence at λex/λem = 320/460 nm in Corning 96- or 384-well OptiPlate (Sigma-Aldrich) and with a Pherastar plate reader (BMG Labtech). […] The resulting fluorescence intensity signal over time was used to model all inhibitor concentrations simultaneously using the following formula, where vmax and vmin were fitted for the minimum and maximum relative velocities, respectively, and ci corresponds to the inhibitor concentration for each assay[20] [drawing 1] 1
To statistically determine the chance of each type of inhibition, we calculated the α value in the partial mixed inhibition model (eq 5), where Part defines the partiality of the inhibition, and α > 1 or α = 1 correspond to competitive and non-competitive inhibition modes, respectively. Last, we utilized Akaike’s Information Criterion[42] to assess the significance of the analysis [drawing 5] 5

Experiment [5] has as its system BJeH fibroblasts. The experiment can be described thus: AKT and ERK phosphorylation by western blotting. The experiment is classed as cell-based. The note with it: Homo sapiens, 0.25 h, 15 min. The procedure:
100,000 BJeH cells were seeded in 12-well tissue culture plates and allowed to grow for 24 h in DMEM (GIBCO, Life Technologies) containing 10% FCS (Thermo Scientific) and 100 U mL^–1 streptomycin/penicillin (GIBCO, Life Technologies). Next, they were washed twice with phosphate-buffered saline (PBS) and serum-starved O/N. ATX 20 nM was incubated with inhibitors for 30 min in a serum-free medium containing 0.05% (w/v) fatty acid-free BSA (total volume 1 mL). The medium from the 12-well plates was removed and replaced with 1 mL of the ATX–inhibitor mixture. Cells were stimulated for 15 min, the medium was removed, and plates were immediately frozen on dry ice and stored at −80 °C. For western blotting, cells were washed with cold PBS; lysed in RIPA buffer; supplemented with protease inhibitors (Pierce), 20 mM NaF and 1 mM orthovanadate; and spun down. The protein concentration was measured using a BCA protein assay kit (Pierce), and LDS sample buffer (NuPAGE, Invitrogen) and 1 mM dithiothreitol were added to the lysate. 20 μg of the total protein was loaded on sodium dodecyl sulfate–polyacrylamide gel electrophoresis pre-cast gradient gels (4–12% Nu-Page Bis-Tris, Invitrogen), followed by transfer to a nitrocellulose membrane. Non-specific protein binding was blocked by 5% BSA in PBS-Tween (0.1%); the primary antibodies were phospho-Akt (Ser473), catalogue number: D93, dilution: 1:1,000; phospho-ERK1/2 (Thr202/Tyr204), catalogue number: D13.14.4E, dilution: 1:2,000, from Cell Signaling Technology. They were incubated O/N at 4 °C in PBS–Tween with 5% BSA, containing 0.1% NaN3. Blots were then incubated for 1 h at room temperature with monoclonal anti-β-actin antibody, clone AC-15, dilution: 1:10,000, from Sigma, which was dissolved in PBS–Tween with 5% skimmed milk containing 0.1% NaN3. HRP-conjugated secondary antibodies [goat anti-mouse (Bio-Rad), catalogue number: 1721011; goat anti-rabbit (Pierce), catalogue number: 1858415] were incubated for 1 h at room temperature in PBS–Tween with 2.5% BSA and developed using an ECL Western blot reagent.

Turning to `C[C@H](CCC(=O)NCCOc1cccc(B2OC(C)(C)C(C)(C)O2)c1)[C@H]1CC[C@H]2C3[C@@H](O)C[C@@H]4C[C@H](O)CC[C@]4(C)[C@H]3CC[C@]12C` (stereo partly drawn) [Compound 13], in experiment [1] (LPC hydrolysis assay), it took 14000 nM to reach half-maximal inhibition (IC50) and the “Residual Activity (%)” value was 14.7%.
Taken in the same sequence, the figures for `C[C@H](CCC(=O)NCCCOc1ccc(B(O)O)cc1)[C@H]1CC[C@H]2C3[C@@H](O)C[C@@H]4C[C@H](O)CC[C@]4(C)[C@H]3CC[C@]12C` (stereo partly drawn) [Compound 18] were 50 nM and 0.6%.
Taken in the same sequence, the figures for `C[C@H](CCC(=O)NCCCOc1ccc([B-](F)(F)F)cc1)[C@H]1CC[C@H]2C3[C@@H](O)C[C@@H]4C[C@H](O)CC[C@]4(C)[C@H]3CC[C@]12C.[Na+]` (stereo partly drawn) [Compound 17] were 70 nM and 1.1%.
Taken in the same sequence, the figures for `C[C@H](CCC(=O)NCCOc1ccc(S(N)(=O)=O)cc1)[C@H]1CC[C@H]2C3[C@@H](O)C[C@@H]4C[C@H](O)CC[C@]4(C)[C@H]3CC[C@]12C` (stereo partly drawn) [Compound 11] were more than 10000 nM and 31%.
For `C[C@H](CCC(=O)N1CC[C@H](Oc2ccc(B3OC(C)(C)C(C)(C)O3)cc2)C1)[C@H]1CC[C@H]2C3[C@@H](O)C[C@@H]4C[C@H](O)CC[C@]4(C)[C@H]3CC[C@]12C` (stereo partly drawn) [Compound 21], in experiment [1] (LPC hydrolysis assay), half-maximal inhibition (IC50) was put at 200 nM and the “Residual Activity (%)” value is reported as 10%.
`COc1ccc(B(O)O)cc1` [Compound 7]: the inhibition at 100 µM in experiment [1] stood at 37%.
For `C[C@H](CCC(=O)NCCCOc1ccc(S(N)(=O)=O)cc1)[C@H]1CC[C@H]2C3[C@@H](O)C[C@@H]4C[C@H](O)CC[C@]4(C)[C@H]3CC[C@]12C` (stereo partly drawn) [Compound 10], in experiment [1] (LPC hydrolysis assay), the 50% inhibitory concentration (IC50) worked out at 400 nM and the “Residual Activity (%)” value is listed as 75%.
The matching figures for `C[C@H](CCC(=O)NCCCCOc1ccc(S(N)(=O)=O)cc1)[C@H]1CC[C@H]2C3[C@@H](O)C[C@@H]4C[C@H](O)CC[C@]4(C)[C@H]3CC[C@]12C` (stereo partly drawn) [Compound 12]: more than 10000 nM and 66%.
Taken in the same sequence, the figures for `C[C@H](CCC(=O)N1CC[C@@H](Oc2ccc(B3OC(C)(C)C(C)(C)O3)cc2)C1)[C@H]1CC[C@H]2C3[C@@H](O)C[C@@H]4C[C@H](O)CC[C@]4(C)[C@H]3CC[C@]12C` (stereo partly drawn) [Compound 20] were 210 nM and 8%.
Taken in the same sequence, the figures for `C[C@H](CCC(=O)NCCCOc1ccc(B2OC(C)(C)C(C)(C)O2)cc1)[C@H]1CC[C@H]2C3[C@@H](O)C[C@@H]4C[C@H](O)CC[C@]4(C)[C@H]3CC[C@]12C` (stereo partly drawn) [Compound 16] were 70 nM and 0.3%.
Consider `C[C@H](CCC(=O)NCCCOc1cccc(B2OC(C)(C)C(C)(C)O2)c1)[C@H]1CC[C@H]2C3[C@@H](O)C[C@@H]4C[C@H](O)CC[C@]4(C)[C@H]3CC[C@]12C` (stereo partly drawn) [Compound 15], for which, in experiment [1] (LPC hydrolysis assay), it took 150 nM to reach half-maximal inhibition (IC50) and the “Residual Activity (%)” value is listed as 1.7%.
In the case of `COc1ccc([B-](F)(F)F)cc1` [Compound 6], in experiment [1], the inhibition at 100 µM turned out to be 57%.
As for `C[C@H](CCC(=O)N1CCC(Oc2ccc(B3OC(C)(C)C(C)(C)O3)cc2)CC1)[C@H]1CC[C@H]2C3[C@@H](O)C[C@@H]4C[C@H](O)CC[C@]4(C)[C@H]3CC[C@]12C` (stereo partly drawn) [Compound 19], in experiment [1] (LPC hydrolysis assay), the half-inhibitory concentration (IC50) was found to be 80 nM and the “Residual Activity (%)” value is on record as 0%.
`C[C@H](CCC(=O)NCCOc1ccc(B2OC(C)(C)C(C)(C)O2)cc1)[C@H]1CC[C@H]2C3[C@@H](O)C[C@@H]4C[C@H](O)CC[C@]4(C)[C@H]3CC[C@]12C` (stereo partly drawn) [Compound 14]: in experiment [1] (LPC hydrolysis assay), half-maximal inhibition (IC50) required 1500 nM and the “Residual Activity (%)” value is listed as 1.4%. Further, the “fold increase in potency over meta-substituted pinacol boronate 13” value in experiment [1] (ethyl-linked, para against meta) stood at 10 fold.
Take `C[C@H](CCC(=O)N1CCC(Oc2ccc([B-](F)(F)F)cc2)CC1)[C@H]1CC[C@H]2C3[C@@H](O)C[C@@H]4C[C@H](O)CC[C@]4(C)[C@H]3CC[C@]12C.[K+]` (stereo partly drawn) [Compound 22]: the “LPA-mediated activation of ATX activity” value in experiment [2] was “dose-dependent decrease”. In experiment [3], the “decrease of LPA1 internalization” value was “approximately 75%”. Moreover, in experiment [4] (Akaike's informative criteria), the “percentage of competitive versus non-competitive inhibition” value is listed as 99%. In experiment [4] (LPC hydrolysis), the mode of inhibition entry is “competitive”. Besides, the affinity in experiment [4] (LPC titration at increasing inhibitor concentrations, Michaelis-Menten nonlinear regression) corresponds to a Ki of 24 ± 4 nM. Further, the “α (partial mixed inhibition model)” value in experiment [4] (α > 1 competitive, α = 1 non-competitive) was 9.7. In experiment [5] (BJeH cells, 20 nM ATX, 1 μM 18:1 LPC, read-out: EC50 (P-AKT and P-ERK levels)), the EC50 was approximately 100 nM. Moreover, the Emax in experiment [5] (BJeH, compared to uninhibited ATX incubated with LPC, read-out: reduction of maximal effective cell response (P-AKT and P-ERK)) is approximately 60%. Also, the IC50 in experiment [1] (14:0 LPC, 150 μM LPC) amounted to 84 nM; in experiment [1] (16:0 LPC, 150 μM LPC) it was 72 nM; in experiment [1] (18:1 LPC, 150 μM LPC) it was 45 nM; in experiment [1] (20:0 LPC, 150 μM LPC) it was 32 nM; in experiment [1] (LPC hydrolysis assay) it was 50 nM. Also, the “Residual Activity (%)” value in experiment [1] (14:0 LPC, 150 μM LPC) is 1%; in experiment [1] (16:0 LPC, 150 μM LPC), 12%; in experiment [1] (18:1 LPC, 150 μM LPC), 5%; in experiment [1] (20:0 LPC, 150 μM LPC, % of catalytic rate of inhibitor-free control), 49%; in experiment [1] (LPC hydrolysis assay), 0%.
